According to patent publication US8987481B1, “Method for isolation of bulk anthocyanidins and other bioactives” (priority 2013, dated 2015):

Test: Storage stability of isolated anthocyanidins
Assay type: physicochemical
Experimental: The isolated anthos are stable when stored in amber bottles under argon at −20° C. […] However, when bound to cellulose, these compounds can be stabilized for a long period of time. Edible cellulose formulations that are used routinely in beverage and food industries are commercially available. Therefore, anthos isolated by the method described here can be readily stabilized with edible cellulose or pectin or other edible materials and used in beverages and foods to provide natural colors, as well as used as nutraceuticals and provide health benefits due to known antioxidant, antiproliferative and anticancer activities of anthos.

stability in solution form: highly unstable
Substance: anthocyanins
